Measured values taken from the supplement of paper PMC10307832.

Legend:
YM155 + Tozasertib = compound: COCC[n+]1c2c(n(Cc3cnccn3)c1C)C(=O)c1ccccc1C2=O [YM155] + Cc1cc(Nc2cc(N3CCN(C)CC3)nc(Sc3ccc(NC(=O)C4CC4)cc3)n2)n[nH]1 [Tozasertib] (partner 0.1 µM); test: relative viability (nuclei count vs DMSO), 5 days (fraction); higher = more cells survive
Method in brief: (§1)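 The day after seeding in 1536-well plates, lung cancer cell lines were treated by pin tool with a single drug, or with a fixed anchor-drug dose together with five library-drug doses (not always all listed) in √10 steps. After 5 days, a combined fix-and-stain solution (final 0.05% Triton X-100, 1% formaldehyde, 1 ug/ml Hoechst) was added. Nuclei counted on 4× images gave relative viability as treated counts over vehicle counts, reported as the median of duplicate plates.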

Quizartinib + Foretinib = compound: CC(C)(C)c1cc(NC(=O)Nc2ccc(-c3cn4c(n3)sc3cc(OCCN5CCOCC5)ccc34)cc2)no1 [Quizartinib] + COc1cc2c(Oc3ccc(NC(=O)C4(C(=O)Nc5ccc(F)cc5)CC4)cc3F)ccnc2cc1OCCCN1CCOCC1 [Foretinib] (partner 0.25 µM); test: as above
Method in brief: as §1

| Cell Line | relative viability (YM155 + Tozasertib; first compound 0.002 µM) | relative viability (YM155 + Tozasertib; first compound 0.006325 µM) | relative viability (YM155 + Tozasertib; first compound 0.02 µM) | relative viability (YM155 + Tozasertib; first compound 0.06325 µM) | relative viability (Quizartinib + Foretinib; first compound 0.001 µM) | relative viability (Quizartinib + Foretinib; first compound 0.003162 µM) | relative viability (Quizartinib + Foretinib; first compound 0.01 µM) | relative viability (Quizartinib + Foretinib; first compound 0.03162 µM) | relative viability (Quizartinib + Foretinib; first compound 0.1 µM) |
| --- | --- | --- | --- | --- | --- | --- | --- | --- | --- |
| NCI-H661 | 0.376 | 0.358 | 0.369 | 0.285 | 0.963 | 0.945 | 1.13 | 0.994 | 1.01 |
| NCI-H727 | 0.38 | 0.721 | 0.615 | 0.7 | 0.71 | 0.877 | 0.838 | 0.801 | 0.871 |
| NCI-H838 | 0.252 | 0.275 | 0.252 | 0.19 | 0.991 | 1.01 | 0.99 | 0.938 | 0.684 |
| NCI-H1299 | – | – | – | – | 1.06 | 1.05 | 1.14 | 1.05 | 1.12 |
| NCI-H1355 | 0.617 | 0.518 | 0.654 | 0.597 | 0.917 | 0.957 | 0.936 | 0.814 | 1.06 |
| NCI-H1395 | 0.788 | 0.779 | 0.814 | 0.777 | 0.961 | 0.971 | 1.02 | 0.995 | 1.03 |
| NCI-H1437 | 0.421 | 0.416 | 0.455 | 0.276 | 0.719 | 1.16 | 1.28 | 1.07 | 0.949 |
| NCI-H1563 | – | – | – | – | 0.975 | 0.898 | 0.884 | 0.631 | 0.881 |
| NCI-H1623 | 0.434 | 0.461 | 0.431 | 0.425 | 0.694 | 0.884 | 0.831 | 0.844 | 0.859 |
| NCI-H1650 | 0.33 | 0.468 | 0.485 | 0.266 | 0.549 | 1.11 | 1.35 | – | 1.03 |
| NCI-H1651 | 0.641 | 0.686 | 0.685 | 0.33 | 0.766 | 0.747 | 0.872 | 0.606 | 0.769 |
| NCI-H1666 | 0.629 | 0.646 | 0.686 | 0.664 | 0.749 | 0.925 | 1.03 | 0.783 | 1.02 |
| NCI-H1703 | – | – | – | – | 0.514 | 0.35 | 0.371 | 0.406 | 0.282 |
| NCI-H1734 | 0.268 | 0.234 | 0.26 | 0.281 | 0.693 | 0.776 | 0.933 | 0.862 | 0.802 |
| NCI-H1755 | 0.51 | 0.584 | 0.603 | 0.54 | 0.826 | 0.881 | 0.93 | 0.956 | 0.822 |
| NCI-H1793 | 0.385 | 0.38 | 0.369 | 0.32 | 0.728 | 0.59 | 0.797 | 0.759 | 0.729 |
| NCI-H1915 | 0.393 | 0.458 | 0.444 | 0.36 | 1.06 | 0.992 | 1.13 | 1.03 | 1.07 |
| NCI-H1944 | 0.253 | 0.279 | 0.259 | 0.232 | 0.854 | 0.825 | 0.938 | 0.888 | 0.795 |
| NCI-H1975 | 0.715 | 0.704 | 0.859 | 0.163 | 0.936 | 0.89 | 0.869 | 0.843 | 1.14 |

| Cell Line | relative viability (YM155 + Tozasertib; first compound 0.002 µM) | relative viability (YM155 + Tozasertib; first compound 0.006325 µM) | relative viability (YM155 + Tozasertib; first compound 0.02 µM) | relative viability (YM155 + Tozasertib; first compound 0.06325 µM) | relative viability (Quizartinib + Foretinib; first compound 0.001 µM) | relative viability (Quizartinib + Foretinib; first compound 0.003162 µM) | relative viability (Quizartinib + Foretinib; first compound 0.01 µM) | relative viability (Quizartinib + Foretinib; first compound 0.03162 µM) | relative viability (Quizartinib + Foretinib; first compound 0.1 µM) |
| --- | --- | --- | --- | --- | --- | --- | --- | --- | --- |
| NCI-H1993 | 0.582 | 0.646 | 0.498 | 0.452 | 0.806 | 0.809 | 0.793 | 0.81 | 0.792 |
| NCI-H2009 | 0.739 | 0.791 | 0.776 | 0.458 | 1.24 | 1.17 | 1.29 | 1.17 | 1.21 |
| NCI-H2023 | 0.416 | 0.433 | 0.314 | 0.0926 | 0.788 | 0.752 | 0.869 | – | 0.742 |
| NCI-H2085 | 0.794 | 0.804 | 0.867 | 0.77 | 0.868 | 0.853 | 1.2 | 0.873 | 0.883 |
| NCI-H2087 | 0.253 | 0.23 | 0.253 | 0.219 | – | 1.05 | 1.12 | 0.941 | 1.07 |
| NCI-H2126 | 0.807 | 0.88 | 0.948 | 0.934 | 1 | 1.12 | 1.2 | 1.22 | 1.23 |
| NCI-H2170 | 0.831 | 0.792 | 0.784 | 0.722 | 0.932 | 0.956 | 1.08 | 0.981 | 1.12 |
| NCI-H2228 | 0.265 | 0.26 | 0.213 | 0.316 | 0.927 | 0.954 | 1.01 | 0.715 | 1.02 |
| NCI-H2342 | 0.477 | 0.566 | 0.541 | 0.479 | 0.965 | 0.938 | 1.11 | 1 | 0.988 |
| NCI-H2347 | 0.531 | 0.59 | 0.786 | 0.567 | 0.655 | 0.963 | 0.638 | 0.892 | 0.938 |
| NCI-H2405 | 0.678 | 0.704 | 0.637 | 0.513 | 0.96 | 1.04 | 1.03 | 1.05 | 1.07 |
| NCI-H3122 | 0.43 | 0.423 | 0.396 | 0.273 | 0.919 | 0.918 | 0.988 | 0.953 | 0.965 |
| PC-3 [JPC-3] | 0.879 | 0.984 | 0.869 | 0.941 | 0.947 | 1.03 | 1.11 | 1.04 | 1.07 |
| PC-14 | 0.585 | 0.632 | 0.629 | 0.564 | 0.844 | 0.893 | 0.973 | 0.953 | 0.971 |
| RERF-LC-KJ | 0.375 | 0.482 | 0.563 | 0.468 | 0.844 | 0.828 | 0.888 | 0.926 | 0.804 |
| SK-LU-1 | 0.293 | 0.357 | 0.418 | 0.341 | 0.779 | 0.76 | 0.943 | 0.83 | 0.985 |
| SK-MES-1 | 0.853 | 0.866 | 0.483 | 0.267 | 0.789 | 0.901 | 0.972 | 0.925 | 0.939 |
| SW 900 | 0.816 | 0.553 | 0.588 | 0.45 | 0.802 | 0.85 | – | 0.882 | 0.836 |
